Legend:
Assay in all cases: Test C preemergence
giant foxtail = format: in vivo, Setaria faberii; details: Setaria faberi, pre-emergence
Method in brief: (§1)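 Preemergence: seeds sown in a loam soil–sand blend and sprayed with test chemical in a non-phytotoxic solvent mixture containing surfactant. Postemergence: plants at 2 to 18 cm (1- to 4-leaf stage) in peat-based medium, treated with the same formulation. Greenhouse 13 to 15 days, then visual rating 0 (no effect) to 100 (complete control).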

ragweed = format: in vivo, Ambrosia elatior; details: Ambrosia artemisiifolia, pre-emergence
Method in brief: as §1

barnyardgrass = format: in vivo, Echinochloa crus-galli; details: Echinochloa crus-galli, pre-emergence
Method in brief: as §1

large (Lg) crabgrass = format: in vivo, Digitaria sanguinalis; details: Digitaria sanguinalis, pre-emergence
Method in brief: as §1

oilseed rape = format: in vivo, Brassica napus; details: Brassica napus, pre-emergence
Method in brief: as §1

blackgrass = format: in vivo, Alopecurus myosuroides; details: Alopecurus myosuroides, pre-emergence
Method in brief: as §1

soybean = format: in vivo, Glycine max; details: Glycine max, pre-emergence
Method in brief: as §1

Italian ryegrass = format: in vivo, Lolium multiflorum; details: Lolium multiflorum, pre-emergence
Method in brief: as §1

pigweed = format: in vivo, Amaranthus retroflexus; details: Amaranthus retroflexus, pre-emergence
Method in brief: as §1

velvetleaf = format: in vivo, Abutilon theophrasti; details: Abutilon theophrasti, pre-emergence
Method in brief: as §1

wheat, winter = format: in vivo, Triticum aestivum; details: Triticum aestivum, pre-emergence
Method in brief: as §1

waterhemp = format: in vivo, Amaranthus rudis; details: Amaranthus tuberculatus, pre-emergence
Method in brief: as §1

johnsongrass = format: in vivo, Sorghum halepense; details: Sorghum halepense, pre-emergence
Method in brief: as §1

Compound `N#Cc1cccc(Oc2ncc(F)cn2)c1-n1cc(C(F)(F)F)cn1` [Compound 79, 3-[(5-fluoro-2-pyrimidinyl)oxy]-2-[4-(trifluoromethyl)-1H-pyrazol-1-yl]benzonitrile] has a pest or weed control at 62 g/ha (giant foxtail; 62 g ai/ha, preemergence, scale 0 (no effect) to 100 (complete control), read-out: Foxtail, Giant plant response rating) of 100%, a pest or weed control at 125 g/ha (giant foxtail; 125 g ai/ha, preemergence, scale 0 (no effect) to 100 (complete control), read-out: Foxtail, Giant plant response rating) of 100% and a pest or weed control at 250 g/ha (giant foxtail; 250 g ai/ha, preemergence, scale 0 (no effect) to 100 (complete control), read-out: Foxtail, Giant plant response rating) of 100%. For the same compound, the pest or weed control at 31 g/ha (giant foxtail; Preemergence, 31 g ai/ha, scale 0 to 100, 0 no effect, 100 complete control, read-out: Plant response rating, Foxtail, Giant) was 98%, the pest or weed control at 62 g/ha (ragweed; 62 g ai/ha, preemergence, scale 0 (no effect) to 100 (complete control), read-out: Ragweed plant response rating) was 90% and the pest or weed control at 125 g/ha (ragweed; 125 g ai/ha, preemergence, scale 0 (no effect) to 100 (complete control), read-out: Ragweed plant response rating) was 90%. The pest or weed control at 250 g/ha (ragweed; 250 g ai/ha, preemergence, scale 0 (no effect) to 100 (complete control), read-out: Ragweed plant response rating) was 90%, the pest or weed control at 31 g/ha (ragweed; Preemergence, 31 g ai/ha, scale 0 to 100, 0 no effect, 100 complete control, read-out: Plant response rating, Ragweed) was 90% and the pest or weed control at 62 g/ha (barnyardgrass; 62 g ai/ha, preemergence, scale 0 (no effect) to 100 (complete control), read-out: Barnyardgrass plant response rating) was 100%. The pest or weed control at 125 g/ha (barnyardgrass; 125 g ai/ha, preemergence, scale 0 (no effect) to 100 (complete control), read-out: Barnyardgrass plant response rating) was 100%, the pest or weed control at 250 g/ha (barnyardgrass; 250 g ai/ha, preemergence, scale 0 (no effect) to 100 (complete control), read-out: Barnyardgrass plant response rating) was 100% and the pest or weed control at 31 g/ha (barnyardgrass; Preemergence, 31 g ai/ha, scale 0 to 100, 0 no effect, 100 complete control, read-out: Plant response rating, Barnyardgrass) was 100%. It also gave a pest or weed control at 62 g/ha (large (Lg) crabgrass; 62 g ai/ha, preemergence, scale 0 (no effect) to 100 (complete control), read-out: Crabgrass, Large plant response rating) of 100%, a pest or weed control at 125 g/ha (large (Lg) crabgrass; 125 g ai/ha, preemergence, scale 0 (no effect) to 100 (complete control), read-out: Crabgrass, Large plant response rating) of 100% and a pest or weed control at 250 g/ha (large (Lg) crabgrass; 250 g ai/ha, preemergence, scale 0 (no effect) to 100 (complete control), read-out: Crabgrass, Large plant response rating) of 100%. The pest or weed control at 31 g/ha (large (Lg) crabgrass; Preemergence, 31 g ai/ha, scale 0 to 100, 0 no effect, 100 complete control, read-out: Plant response rating, Crabgrass, Large) was 100%, the plant injury at 62 g/ha (oilseed rape; 62 g ai/ha, preemergence, scale 0 (no effect) to 100 (complete control), read-out: Oilseed Rape plant response rating) was 95% and the plant injury at 125 g/ha (oilseed rape; 125 g ai/ha, preemergence, scale 0 (no effect) to 100 (complete control), read-out: Oilseed Rape plant response rating) was 95%. It also gave a plant injury at 250 g/ha (oilseed rape; 250 g ai/ha, preemergence, scale 0 (no effect) to 100 (complete control), read-out: Oilseed Rape plant response rating) of 95%, a plant injury at 31 g/ha (oilseed rape; Preemergence, 31 g ai/ha, scale 0 to 100, 0 no effect, 100 complete control, read-out: Plant response rating, Oilseed Rape) of 90% and a pest or weed control at 62 g/ha (blackgrass; 62 g ai/ha, preemergence, scale 0 (no effect) to 100 (complete control), read-out: Blackgrass plant response rating) of 90%. The pest or weed control at 125 g/ha (blackgrass; 125 g ai/ha, preemergence, scale 0 (no effect) to 100 (complete control), read-out: Blackgrass plant response rating) was 90%, the pest or weed control at 250 g/ha (blackgrass; 250 g ai/ha, preemergence, scale 0 (no effect) to 100 (complete control), read-out: Blackgrass plant response rating) was 90% and the pest or weed control at 31 g/ha (blackgrass; Preemergence, 31 g ai/ha, scale 0 to 100, 0 no effect, 100 complete control, read-out: Plant response rating, Blackgrass) was 90%. The plant injury at 62 g/ha (soybean; 62 g ai/ha, preemergence, scale 0 (no effect) to 100 (complete control), read-out: Soybean plant response rating) was 75%, the plant injury at 125 g/ha (soybean; 125 g ai/ha, preemergence, scale 0 (no effect) to 100 (complete control), read-out: Soybean plant response rating) was 90% and the plant injury at 250 g/ha (soybean; 250 g ai/ha, preemergence, scale 0 (no effect) to 100 (complete control), read-out: Soybean plant response rating) was 95%. The plant injury at 31 g/ha (soybean; Preemergence, 31 g ai/ha, scale 0 to 100, 0 no effect, 100 complete control, read-out: Plant response rating, Soybean) was 75%, the pest or weed control at 62 g/ha (Italian ryegrass; 62 g ai/ha, preemergence, scale 0 (no effect) to 100 (complete control), read-out: Ryegrass, Italian plant response rating) was 90% and the pest or weed control at 125 g/ha (Italian ryegrass; 125 g ai/ha, preemergence, scale 0 (no effect) to 100 (complete control), read-out: Ryegrass, Italian plant response rating) was 90%. For the same compound, the pest or weed control at 250 g/ha (Italian ryegrass; 250 g ai/ha, preemergence, scale 0 (no effect) to 100 (complete control), read-out: Ryegrass, Italian plant response rating) was 90%, the pest or weed control at 31 g/ha (Italian ryegrass; Preemergence, 31 g ai/ha, scale 0 to 100, 0 no effect, 100 complete control, read-out: Plant response rating, Ryegrass, Italian) was 40% and the pest or weed control at 62 g/ha (pigweed; 62 g ai/ha, preemergence, scale 0 (no effect) to 100 (complete control), read-out: Pigweed plant response rating) was 100%. It also gave a pest or weed control at 125 g/ha (pigweed; 125 g ai/ha, preemergence, scale 0 (no effect) to 100 (complete control), read-out: Pigweed plant response rating) of 100%, a pest or weed control at 250 g/ha (pigweed; 250 g ai/ha, preemergence, scale 0 (no effect) to 100 (complete control), read-out: Pigweed plant response rating) of 100% and a pest or weed control at 31 g/ha (pigweed; Preemergence, 31 g ai/ha, scale 0 to 100, 0 no effect, 100 complete control, read-out: Plant response rating, Pigweed) of 100%. The pest or weed control at 62 g/ha (velvetleaf; 62 g ai/ha, preemergence, scale 0 (no effect) to 100 (complete control), read-out: Velvetleaf plant response rating) was 100%, the pest or weed control at 125 g/ha (velvetleaf; 125 g ai/ha, preemergence, scale 0 (no effect) to 100 (complete control), read-out: Velvetleaf plant response rating) was 100% and the pest or weed control at 250 g/ha (velvetleaf; 250 g ai/ha, preemergence, scale 0 (no effect) to 100 (complete control), read-out: Velvetleaf plant response rating) was 100%. For the same compound, the pest or weed control at 31 g/ha (velvetleaf; Preemergence, 31 g ai/ha, scale 0 to 100, 0 no effect, 100 complete control, read-out: Plant response rating, Velvetleaf) was 90%, the plant injury at 62 g/ha (wheat, winter; 62 g ai/ha, preemergence, scale 0 (no effect) to 100 (complete control), read-out: Wheat plant response rating) was 35% and the plant injury at 125 g/ha (wheat, winter; 125 g ai/ha, preemergence, scale 0 (no effect) to 100 (complete control), read-out: Wheat plant response rating) was 85%. The plant injury at 250 g/ha (wheat, winter; 250 g ai/ha, preemergence, scale 0 (no effect) to 100 (complete control), read-out: Wheat plant response rating) was 90%, the plant injury at 31 g/ha (wheat, winter; Preemergence, 31 g ai/ha, scale 0 to 100, 0 no effect, 100 complete control, read-out: Plant response rating, Wheat) was 10% and the pest or weed control at 62 g/ha (waterhemp; 62 g ai/ha, preemergence, scale 0 (no effect) to 100 (complete control), read-out: Waterhemp plant response rating) was 100%. The pest or weed control at 125 g/ha (waterhemp; 125 g ai/ha, preemergence, scale 0 (no effect) to 100 (complete control), read-out: Waterhemp plant response rating) was 100%, the pest or weed control at 250 g/ha (waterhemp; 250 g ai/ha, preemergence, scale 0 (no effect) to 100 (complete control), read-out: Waterhemp plant response rating) was 100% and the pest or weed control at 31 g/ha (waterhemp; Preemergence, 31 g ai/ha, scale 0 to 100, 0 no effect, 100 complete control, read-out: Plant response rating, Waterhemp) was 100%. The pest or weed control at 62 g/ha (johnsongrass; 62 g ai/ha, preemergence, scale 0 (no effect) to 100 (complete control), read-out: Johnsongrass plant response rating) was 90%, the pest or weed control at 125 g/ha (johnsongrass; 125 g ai/ha, preemergence, scale 0 (no effect) to 100 (complete control), read-out: Johnsongrass plant response rating) was 100% and the pest or weed control at 250 g/ha (johnsongrass; 250 g ai/ha, preemergence, scale 0 (no effect) to 100 (complete control), read-out: Johnsongrass plant response rating) was 100%. For the same compound, the pest or weed control at 31 g/ha (johnsongrass; Preemergence, 31 g ai/ha, scale 0 to 100, 0 no effect, 100 complete control, read-out: Plant response rating, Johnsongrass) was 75%.
